The results in this text go back to paper PMC7286362 (Journal of medicinal chemistry, 2020).

Read-outs that look alike come from different tables or passages of the source.

Series [1] concerns the target T1, PRMT6 (Homo sapiens, UniProt Q96LA8). The format is cell-based. The settings on record: for inhibition of H3R2me2a in cells: PRMT6-transfected HEK293T cells, 20 h.
The target in series [2] is T2, endogenously expressed PRMT4 (Homo sapiens, UniProt Q86X55).
T2 sequence (Q86X55 1-608): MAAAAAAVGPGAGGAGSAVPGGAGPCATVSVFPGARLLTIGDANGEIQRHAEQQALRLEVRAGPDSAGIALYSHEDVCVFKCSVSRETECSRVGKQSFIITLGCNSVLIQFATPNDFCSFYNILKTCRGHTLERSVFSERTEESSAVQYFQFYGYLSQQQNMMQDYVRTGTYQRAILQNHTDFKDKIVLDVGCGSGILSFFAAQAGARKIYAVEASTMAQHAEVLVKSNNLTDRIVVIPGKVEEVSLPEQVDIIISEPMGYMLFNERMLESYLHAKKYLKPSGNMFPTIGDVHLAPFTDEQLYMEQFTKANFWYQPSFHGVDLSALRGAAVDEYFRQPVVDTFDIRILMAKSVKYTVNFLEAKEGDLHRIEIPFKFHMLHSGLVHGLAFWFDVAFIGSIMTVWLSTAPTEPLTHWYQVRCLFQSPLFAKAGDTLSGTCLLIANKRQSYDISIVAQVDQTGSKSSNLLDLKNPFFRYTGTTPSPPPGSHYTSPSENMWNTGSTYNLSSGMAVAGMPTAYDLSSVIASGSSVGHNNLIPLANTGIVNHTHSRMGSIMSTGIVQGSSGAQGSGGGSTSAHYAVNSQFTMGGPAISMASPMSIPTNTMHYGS
The experiment in a line: Cellular PRMT4 assay: BAF155-Rme2a levels in MCF7 cells. As to conditions: 2 days, concentrations up to 20 μM. The series is classed as cell-based.

The subject of another series is MCF-7 cells. As to the kind of experiment: Cell viability assay. The settings on record: up to 20 μM, 3 days, CCK-8. The format is cell-based.
The target in series [3] is T1, PRMT6. As to the kind of experiment: Mass spectrometry analysis of covalent binding, PRMT6. The settings on record: 15 μM protein, 300 μM compound, 1 h at rt.
The test system of the next series is HEK293T cells. The experiment in a line: Cell viability assay. As to conditions: up to 20 μM, 3 days, CCK-8. The format is cell-based.
Series [4] concerns PNT2 (a nontumorigenic prostate cell line). The experiment in a line: Cell viability assay. The series is classed as cell-based. As to conditions: up to 20 μM, 3 days, CCK-8.
Series [5] addresses T3, PRMT3 (Homo sapiens, UniProt O60678). The format is cell-based. The settings on record: HEK293T cells, 20 h, concentrations up to 20 μM.
The next series deals with PRMT1 (Homo sapiens, UniProt Q99873). As to the kind of experiment: Mass spectrometry analysis of covalent binding, PRMT1. The settings on record: 15 μM protein, 300 μM compound, 1 h at rt.
Chain of PRMT1 (Q99873 whole entry, species assumed): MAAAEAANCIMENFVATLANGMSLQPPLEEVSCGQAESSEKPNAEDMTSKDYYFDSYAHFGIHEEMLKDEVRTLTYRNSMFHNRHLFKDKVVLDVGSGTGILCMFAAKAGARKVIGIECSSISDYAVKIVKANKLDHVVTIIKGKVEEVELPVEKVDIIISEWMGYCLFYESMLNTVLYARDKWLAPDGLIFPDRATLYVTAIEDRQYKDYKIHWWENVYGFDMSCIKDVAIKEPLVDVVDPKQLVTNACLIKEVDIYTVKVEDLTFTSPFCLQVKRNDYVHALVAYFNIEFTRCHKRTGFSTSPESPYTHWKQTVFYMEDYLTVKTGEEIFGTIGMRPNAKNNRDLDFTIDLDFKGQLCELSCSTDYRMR
Series [6] has as its target T1, PRMT6. As to the kind of experiment: KI and kinact determination from time-dependent IC50 values. The series is classed as biochemical. As to conditions: for time dependence of IC50 against PRMT6: preincubation 1 to 30 min, SPA.
For the next series, the target named is PRMT8 (Homo sapiens, UniProt Q9NR22). As to the kind of experiment: Mass spectrometry analysis of covalent binding, PRMT8. As to conditions: 15 μM protein, 300 μM compound, 1 h at rt.
Chain of PRMT8 (Q9NR22 whole entry, species assumed): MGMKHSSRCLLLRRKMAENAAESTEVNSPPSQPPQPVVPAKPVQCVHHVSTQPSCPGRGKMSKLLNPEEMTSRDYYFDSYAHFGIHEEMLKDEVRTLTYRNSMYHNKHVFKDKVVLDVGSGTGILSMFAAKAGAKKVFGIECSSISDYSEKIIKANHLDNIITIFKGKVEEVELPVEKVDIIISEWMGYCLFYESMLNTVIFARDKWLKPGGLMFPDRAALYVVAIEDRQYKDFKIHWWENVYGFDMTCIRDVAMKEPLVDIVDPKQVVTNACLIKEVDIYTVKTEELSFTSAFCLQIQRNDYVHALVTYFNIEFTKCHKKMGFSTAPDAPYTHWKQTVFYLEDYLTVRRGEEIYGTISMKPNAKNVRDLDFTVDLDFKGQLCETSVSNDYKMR
Series [7] concerns PKMTs, DNMTs, and type II, III PRMTs. The experiment in a line: Methyltransferase selectivity assay, PKMTs, DNMTs and type II, III PRMTs. The series is classed as biochemical. As to conditions: at 10 μM.
In series [8] the target is T3, PRMT3. As to the kind of experiment: Mass spectrometry analysis of covalent binding, PRMT3. The settings on record: 15 μM protein, 300 μM compound, 1 h at rt.
In another series the target is T4, PRMT4 (Homo sapiens, UniProt Q86X55).
T4 sequence (Q86X55 1-608): T2 sequence (Q86X55 1-608)
As to the kind of experiment: Mass spectrometry analysis of covalent binding, PRMT4. As to conditions: 15 μM protein, 300 μM compound, 1 h at rt.

In another series the test system is type I PRMTs. As to the kind of experiment: Methyltransferase selectivity assay, type I PRMTs. The series is classed as biochemical.
Another series deals with DNMT3A/3L (Homo sapiens, UniProt Q9Y6K1). As to the kind of experiment: Methyltransferase selectivity assay, DNMT3A/3L. The format is biochemical. The settings on record: read-out: inhibition of DNMT3A/3L.
Chain of DNMT3A/3L (Q9Y6K1 whole entry, looked up, species assumed): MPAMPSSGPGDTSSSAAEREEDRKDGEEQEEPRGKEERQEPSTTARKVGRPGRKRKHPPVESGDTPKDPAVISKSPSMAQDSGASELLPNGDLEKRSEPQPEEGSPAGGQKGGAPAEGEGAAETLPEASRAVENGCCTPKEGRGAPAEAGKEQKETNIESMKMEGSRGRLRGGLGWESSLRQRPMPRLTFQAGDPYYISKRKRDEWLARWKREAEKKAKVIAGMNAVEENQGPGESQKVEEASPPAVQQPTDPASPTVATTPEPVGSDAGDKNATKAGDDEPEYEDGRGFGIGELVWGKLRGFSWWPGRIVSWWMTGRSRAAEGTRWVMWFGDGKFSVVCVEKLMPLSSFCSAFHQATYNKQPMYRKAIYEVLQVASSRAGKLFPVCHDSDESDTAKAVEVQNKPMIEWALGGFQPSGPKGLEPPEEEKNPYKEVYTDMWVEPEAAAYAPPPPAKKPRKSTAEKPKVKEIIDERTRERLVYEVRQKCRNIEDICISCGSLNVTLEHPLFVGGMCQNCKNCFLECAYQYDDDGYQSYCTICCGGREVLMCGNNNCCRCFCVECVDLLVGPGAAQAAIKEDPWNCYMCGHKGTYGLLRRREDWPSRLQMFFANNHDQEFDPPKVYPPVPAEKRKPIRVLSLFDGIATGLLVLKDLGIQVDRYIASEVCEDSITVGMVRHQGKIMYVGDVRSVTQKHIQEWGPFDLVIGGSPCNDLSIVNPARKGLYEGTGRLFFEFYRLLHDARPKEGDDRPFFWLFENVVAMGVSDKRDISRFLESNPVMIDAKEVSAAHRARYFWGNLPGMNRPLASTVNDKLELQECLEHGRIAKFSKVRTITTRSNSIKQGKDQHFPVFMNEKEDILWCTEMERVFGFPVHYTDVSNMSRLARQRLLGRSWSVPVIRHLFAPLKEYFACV
Chain of DNMT3A/3L (Q9UJW3 whole entry partner, species assumed): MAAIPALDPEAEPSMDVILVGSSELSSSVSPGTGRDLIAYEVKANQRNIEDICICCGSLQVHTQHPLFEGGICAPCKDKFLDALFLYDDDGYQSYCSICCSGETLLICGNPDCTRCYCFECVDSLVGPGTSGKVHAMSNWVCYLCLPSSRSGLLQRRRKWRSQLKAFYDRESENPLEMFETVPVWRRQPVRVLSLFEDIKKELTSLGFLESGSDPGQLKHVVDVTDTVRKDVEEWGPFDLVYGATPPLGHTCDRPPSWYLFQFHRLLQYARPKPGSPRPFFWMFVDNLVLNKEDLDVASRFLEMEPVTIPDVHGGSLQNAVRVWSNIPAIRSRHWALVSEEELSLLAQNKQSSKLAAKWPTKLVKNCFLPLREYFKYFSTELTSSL
Series [9] has as its target T1, PRMT6. The experiment in a line: Scintillation proximity assay. The format is biochemical. The settings on record: SPA, 1 h preincubation. (Scintillation proximity formats need no separation of bound from free tracer.)

T1 sequence (Q96LA8 whole entry): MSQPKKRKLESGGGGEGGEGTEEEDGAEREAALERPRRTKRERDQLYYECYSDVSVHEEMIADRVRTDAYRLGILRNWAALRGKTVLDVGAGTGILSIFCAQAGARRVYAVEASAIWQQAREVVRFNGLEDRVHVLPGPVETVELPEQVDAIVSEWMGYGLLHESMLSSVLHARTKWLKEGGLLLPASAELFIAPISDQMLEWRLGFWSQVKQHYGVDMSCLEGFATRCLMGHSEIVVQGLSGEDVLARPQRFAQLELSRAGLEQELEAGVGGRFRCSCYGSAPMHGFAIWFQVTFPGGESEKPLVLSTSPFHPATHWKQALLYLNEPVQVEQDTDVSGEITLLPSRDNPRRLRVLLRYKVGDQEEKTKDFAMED
T3 sequence (O60678 whole entry, species assumed): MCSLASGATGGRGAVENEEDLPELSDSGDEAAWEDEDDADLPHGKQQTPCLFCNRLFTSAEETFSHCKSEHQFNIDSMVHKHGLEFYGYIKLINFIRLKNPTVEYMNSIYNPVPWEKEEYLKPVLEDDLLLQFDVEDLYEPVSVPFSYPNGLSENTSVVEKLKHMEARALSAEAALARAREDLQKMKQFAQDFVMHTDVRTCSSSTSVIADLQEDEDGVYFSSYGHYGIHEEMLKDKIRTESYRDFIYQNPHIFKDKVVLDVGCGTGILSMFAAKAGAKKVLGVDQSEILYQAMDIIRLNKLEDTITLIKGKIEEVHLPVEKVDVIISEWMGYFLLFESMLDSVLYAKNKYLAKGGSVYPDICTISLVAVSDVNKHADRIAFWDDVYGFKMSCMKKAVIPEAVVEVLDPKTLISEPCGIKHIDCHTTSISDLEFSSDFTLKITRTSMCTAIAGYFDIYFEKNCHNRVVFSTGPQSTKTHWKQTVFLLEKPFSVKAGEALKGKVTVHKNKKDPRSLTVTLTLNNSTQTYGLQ

For `CC(C)Oc1ccc(-c2c[nH]cc2CN(C)CCN)cc1` [MS023, reference compound], the “inhibition of H3R2me2a in cells” value at PRMT6 [1] (at 2 μM (positive control)) is recorded as “effectively inhibited H3R2me2a”.
For the compound `C=CC(=O)Nc1cccc(-c2c[nH]cc2CN(C)CCO)c1` [Compound 7, N-(3-(4-(((2-Hydroxyethyl)(methyl)amino)methyl)-1H-pyrrol-3-yl)phenyl)acrylamide], at PRMT6 [1] (concentrations up to 10 μM), the “inhibition of H3R2me2a in cells” value is given as “did not significantly inhibit H3R2me2a”. For the same compound, the “reduction of BAF155-Rme2a levels in cells” value in series [2] was “did not reduce”. Besides, the “cytotoxicity in MCF-7 cells” value in the series on MCF-7 cells is given as “not cytotoxic”. The “covalent modification of PRMT6 (MS adduct)” value on PRMT6 [3] is given as “neither compound 5 nor compound 7 could modify PRMT6 in a detected level”. Also, in the series with HEK293T cells, the “cytotoxicity in HEK293T cells” value is recorded as “not cytotoxic”. Further, the “cytotoxicity in PNT2 cells” value in series [4] is on record as “not cytotoxic”. Also, the “reduction of PRMT3-dependent H4R3me2a in cells” value on PRMT3 [5] was “did not significantly reduce this mark”.
Broadly, the kinact/KI is the maximal inactivation rate divided by the concentration that gives half of it. For `C=CC(=O)Nc1cccc(-c2c[nH]cc2CN(C)CCN)c1` [Compound 4, N-(3-(4-(((2-Aminoethyl)(methyl)amino)methyl)-1H-pyrrol-3-yl)-phenyl)acrylamide], at PRMT6 [1] (from cellular assays), the “selectivity for PRMT6 over PRMT1 in cells” value is on record as ~ 4 fold and the “selectivity for PRMT6 over PRMT4 in cells” value is listed as > 20 fold. The “covalent modification of PRMT1 (MS adduct)” value on PRMT1 is given as “no adducts with other type I PRMTs could be detected”. At PRMT6 [6], the kinact/KI was 83000 M⁻¹ s⁻¹ and the “time dependence of IC50 against PRMT6” value is recorded as “time-dependent potencies”. Moreover, the “reduction of BAF155-Rme2a levels in cells” value in [2] was “did not reduce”. Moreover, the “covalent modification of PRMT8 (MS adduct)” value at PRMT8 is “no adducts with other type I PRMTs could be detected”. Moreover, the “cytotoxicity in MCF-7 cells” value in the series on MCF-7 cells is on record as “not cytotoxic”. The “inhibition of PKMTs, DNMTs, and type II, III PRMTs” value in series [7] is recorded as “did not significantly inhibit”. Also, at PRMT6 [3], the “covalent modification of PRMT6 (MS adduct)” value is given as “adduct with mass equal to PRMT6 plus compound 4, with no detectable unmodified PRMT6”. Further, at PRMT3 [8], the “covalent modification of PRMT3 (MS adduct)” value is recorded as “no adducts with other type I PRMTs could be detected”. Also, the “cytotoxicity in HEK293T cells” value with HEK293T cells is “not cytotoxic”. Further, in series [4], the “cytotoxicity in PNT2 cells” value was “not cytotoxic”. Moreover, the “reduction of PRMT3-dependent H4R3me2a in cells” value on PRMT3 [5] is “did not significantly reduce this mark”. For the same compound, the “covalent modification of PRMT4 (MS adduct)” value on PRMT4 was “no adducts with other type I PRMTs could be detected”. Besides, the “inhibition of type I PRMTs” value in the series on type I PRMTs (at 10 μM) was > 90%. Also, the “inhibition of type I PRMTs” value in the series with type I PRMTs (at 50 μM) is on record as > 50%. The inhibition at 50 µM on DNMT3A/3L is > 50%.
`CCC(=O)Nc1cccc(-c2c[nH]cc2CN(C)CCN)c1` [Compound 5, N-(3-(4-(((2-Aminoethyl)(methyl)amino)methyl)-1H-pyrrol-3-yl)-phenyl)propionamide]: the “inhibition of H3R2me2a in cells” value at PRMT6 [1] (concentrations up to 10 μM) is listed as “inhibited H3R2me2a, but was less effective than compound 4”. For the same compound, the “time dependence of IC50 against PRMT6” value at PRMT6 [6] was “no significant change in IC50 values”. For the same compound, in series [2], the “reduction of BAF155-Rme2a levels in cells” value is on record as “did not reduce”. Further, the “cytotoxicity in MCF-7 cells” value with MCF-7 cells was “not cytotoxic”. The “covalent modification of PRMT6 (MS adduct)” value at PRMT6 [3] is reported as “neither compound 5 nor compound 7 could modify PRMT6 in a detected level”. In addition, the “pIC50 against PRMT6” value against PRMT6 [9] was determined as 7.6 ± 0.1. Moreover, the “cytotoxicity in HEK293T cells” value in the series on HEK293T cells is on record as “not cytotoxic”. Besides, the “cytotoxicity in PNT2 cells” value in [4] is “not cytotoxic”. The “reduction of PRMT3-dependent H4R3me2a in cells” value on PRMT3 [5] is reported as “did not significantly reduce this mark”. Also, the “inhibition of type I PRMTs” value with type I PRMTs (at 10 μM) is > 40%; with type I PRMTs (at 50 μM), > 80%.
